Source: patent publication US7842471B2, “Ultra sensitive biosensor for detecting bio-signal transmitters, and detector and detecting method using the same” (priority 2007, dated 2010)

What was measured:
[1] = test system: cultured cortical astrocytes; assay: sniffer-patch detection of glutamate release from cultured wild-type astrocytes with GluR1(L497Y)-transfected HEK cells; assay type: cell-based, mice; details: for inward current in HEK cells expressing GluR1(L497Y): brief (<1 sec) pressure application, 500 μM TFLLR, 300 μM ATP, 180 μM bradykinin, wild-type astrocytes
Method: (§1) HEK 293 cells were transfected with a 1:3.5 ratio of GFP and GluR1(L497Y) using the calcium phosphate method using effectence for 6-8 hours, after which the media was replaced and supplemented with 1 mM kynurenic acid and 10 μM N-(4-hydroxyphenylpropanoyl) spermine or 10 μM CNQX. The transfected HEK cells were subsequently trypsinized and replated onto astrocyte feeder layers derived from either wild-type or PAR1−/− mice 24 hours post-transfection, and recordings were performed 24 hours after replating. The prepared transfectant was used as a biosensor in the following examples.
In this experimental example, the glutamate release from astrocytes was quantitatively evaluated in real time by a “sniffer-patch” detection system. […] The “sniffer-patch” method was performed according to “T. G. J. Allen, Trends Neurosci., Vol. 20, No. 5 pp. […], 1997”, unless there is different mention thereto.
Cultured astrocytes were prepared from P0-P3 postnatal mice obtained from KIST SPF. The cerebral cortex was dissected free of adherent meninges, minced, and dissociated into single cell suspension by trituration through a Pasteur pipette. All procedures involving the use of animals were reviewed and approved by the Emory University IACUC. Dissociated cells were plated onto either 12 mm glass coverslips or 6 well plates coated with 0.1 mg/ml poly-D-lysine. Cells were grown in DMEM media (Gibco, cat# 11960-044) supplemented with 25 mM glucose, 10% heat-inactivated horse serum, and 10% heat-inactivated fetal bovine serum, 2 mM glutamine, and 1000 units/ml penicillin-streptomycin. Cultures were maintained at 37° C. in a humidified 5% CO2-containing atmosphere. Astrocyte cultures prepared in this way were previously determined by GFAP (glial fibrillary acidic protein) staining to be greater than 95% astrocytes (Nicole et al., 2005). In some experiments, the culture media was replaced 24 hours after plating with DMEM with all added components except glutamine, and cultures were maintained for 4 days before experimentation in glutamine-free media.
Thus, this technique provides millisecond time resolution for the detection of micromolar levels of glutamate released from astrocytes.
(§2) GluR1(L497Y)-transfected HEK cells were directly plated onto an astrocyte monolayer, and subsequently the whole cell HEK current response under voltage clamp during brief 0.2 sec application of the PAR1 activator TFLLR (500 μM), ATP (300 μM), or bradykinin (180 μM), respectively, from a pressurized pipette was recorded (FIGS. 1a, and 1b).

wild-type astrocytes = assay: Fura-2 Ca2+ imaging in wild-type astrocytes; assay type: cell-based, mice; details: brief (<1 sec) pressure application; 500 μM TFLLR, 300 μM ATP, 180 μM bradykinin; Fura-2-AM
Method: (§3) FIG. 1a is a schematic illustrating experimental setup and a GFP fluorescent image of astrocyte—GluR1(L497Y)/GFP transfected HEK cell co-culture (upper left panel). […] The Fura2-AM loading was performed by incubating with 5 μM Fura2-AM in 1 μM pluronic acid (Molecular Probes) for 30 min at room temperature. The calibration bar is 20 μm.

cultured neurons = assay: glutamate release from cultured neurons detected with GluR1(L497Y)-transfected HEK cells; assay type: cell-based
Method: To verify this prediction, effects of a hyperosmotic solution on the glutamate-release from cultured neurons and astrocytes were evaluated and are shown in FIGS. 3a to 3c.
The detection is abolished by the treatment of 10 μM CNQX. The right panel is the summary of the current amplitude changes; *p<0.05; paired t-test (n=6).
That is, a brief application of TFLLR caused no detectable glutamate-induced current in GluR1(L497Y)-transfected HEK cells adjacent to neurons.

NR1-1a/NR2A2D = assay: D-serine or glycine release from astrocytes detected with NR1-1a/NR2A2D-transfected HEK cells; assay type: cell-based; details: 100 uM glutamate + 10 uM DCKA vs 100 uM glutamate alone; 500 uM TFLLR
Method: HEK 293 cells were transfected NR1-1a and NR2A2D at a ratio of 1:2 by using the calcium phosphate method using effectence for 6-8 hours, after which the media was replaced and supplemented with 5 mM magnesium chloride and 10 μM D-2-amino-phosphonopentanoic acid or 10 μM D-AP5. The transfected HEK cells were subsequently trypsinized and replated onto astrocyte feeder layers derived from wild-type 24 hours post-transfection, and recordings performed 24 hours after replating. The prepared transfectant was used as a biosensor in the following examples.
To activate the NMDA receptor, it is necessary for the two subunits to bind to the corresponding binding materials, respectively. The activation may be confirmed by measuring intracellular inward current.
In this example, the media was supplemented with sufficient glutamate to saturate the glutamate domain. The intracellular inward current in the biosensor prepared in Example 5, under the conditions with or without treating a glycine binding domain blocker, DCKA, which artificially makes a glycine-free or D-serine-free condition, to examine the glycine or D-serine detecting ability of the biosensor.

GluR1(L497Y) = biological target: T1, GluR1(L497Y) (Rattus norvegicus, UniProt P19490, L497Y); assay: glutamate activation of GluR1(L497Y) current in transfected HEK cells (dose response); assay type: cell-based
T1 construct: expressed in transfected cells; host or cells: HEK 293 cells (ATCC1573)
T1 sequence (P19490 19-907 L497Y): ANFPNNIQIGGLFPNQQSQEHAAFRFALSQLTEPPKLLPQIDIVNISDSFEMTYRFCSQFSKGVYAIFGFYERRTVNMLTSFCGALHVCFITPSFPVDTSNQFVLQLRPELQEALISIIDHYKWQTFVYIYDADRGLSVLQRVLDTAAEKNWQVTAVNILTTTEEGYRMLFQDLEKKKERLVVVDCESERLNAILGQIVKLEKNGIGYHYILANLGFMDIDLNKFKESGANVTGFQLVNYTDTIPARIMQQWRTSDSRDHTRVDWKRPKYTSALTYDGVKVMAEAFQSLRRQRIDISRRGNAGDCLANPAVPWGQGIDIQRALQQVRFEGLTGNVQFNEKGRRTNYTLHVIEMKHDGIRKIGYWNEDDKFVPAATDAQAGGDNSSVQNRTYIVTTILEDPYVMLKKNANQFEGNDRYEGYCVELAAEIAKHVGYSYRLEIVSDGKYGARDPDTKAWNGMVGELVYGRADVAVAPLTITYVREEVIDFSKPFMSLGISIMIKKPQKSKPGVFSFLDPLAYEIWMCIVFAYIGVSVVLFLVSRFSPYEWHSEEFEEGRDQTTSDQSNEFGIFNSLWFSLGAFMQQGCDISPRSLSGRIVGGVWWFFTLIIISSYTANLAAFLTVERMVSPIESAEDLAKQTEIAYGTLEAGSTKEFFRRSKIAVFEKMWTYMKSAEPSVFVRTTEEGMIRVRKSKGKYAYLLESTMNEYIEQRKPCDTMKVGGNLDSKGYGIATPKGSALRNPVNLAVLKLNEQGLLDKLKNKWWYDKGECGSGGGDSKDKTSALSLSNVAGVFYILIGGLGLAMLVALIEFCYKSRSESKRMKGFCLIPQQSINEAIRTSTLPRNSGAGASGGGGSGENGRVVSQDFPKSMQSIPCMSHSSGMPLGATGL
Method: as §1

PAR1-/- astrocytes [2] = assay: sniffer-patch detection of glutamate release from PAR1-/- astrocytes with GluR1(L497Y)-transfected HEK cells; assay type: cell-based, mice
Method: as §1, §2

PAR1-/- astrocytes [3] = assay: Ca2+-sensitive dye imaging in PAR1-/- astrocytes; assay type: cell-based, mice; details: TFLLR application
Method: as §3
(§4) These control experiments were performed on the same day as TFLLR stimulation of HEK cells on wild-type astrocytes, and confirm that PAR1 activators had no direct effect on GluR1(L497Y) currents in HEK cells.

HEK cells = assay: Ca2+-sensitive dye imaging in HEK cells (endogenous PAR1); assay type: cell-based; details: TFLLR application, co-culture on PAR1-/- astrocytes
Method: as §3, §4

[4] = test system: acutely dissociated CA1 astrocytes; assay: glutamate release from acutely dissociated CA1 hippocampal astrocytes detected with GluR1(L497Y)-transfected HEK cells; assay type: cell-based, mice; details: brief (1 sec) application of TFLLR; n=4
Text: Cells were acutely dissociated from the CA1 region of hippocampal slices prepared from transgenic mice (Jackson Laboratories) expressing GFP under control of the GFAP promoter (Brenner et al., 1994), allowing to unambiguously identify isolated hippocampal astrocytes that had not been subject to tissue culture. Cells were dissociated directly onto GluR1(L497Y)-transfected HEK cells obtained in Example 1.

Nc1ncnc2c1ncn2[C@@H]1O[C@H](COP(=O)(O)OP(=O)(O)OP(=O)(O)O)[C@@H](O)[C@H]1O [ATP]
inward current in HEK cells expressing GluR1(L497Y) [1]: elicited an inward current | astrocytic intracellular Ca2+ (wild-type astrocytes): increased

N#Cc1cc2[nH]c(=O)c(=O)[nH]c2cc1[N+](=O)[O-] [CNQX]
effect on inward currents evoked by TFLLR ([1]; CNQX 10 μM, glutamine-free medium): completely abolished | effect on detection of neuronal glutamate release evoked by hyperosmotic solution (cultured neurons; 10 μM CNQX, hyperosmotic solution 530 mosmol): abolished

O=C(O)c1cc(=O)c2c(Cl)cc(Cl)cc2[nH]1 [DCKA, 5,7-dichlorokynurenic acid]
inward current value after treating TFLLR (NR1-1a/NR2A2D): considerably decreased

N[C@@H](CCC(=O)O)C(=O)O [glutamate]
Hill slope (GluR1(L497Y)): 1.3

TFLLR
current response, % of the maximal response ([1]; astrocytes cultured in the absence of glutamine, TFLLR 500 μM, n=4): 9.7 ± 1.3% | inward current in HEK cells expressing GluR1(L497Y) [1]: elicited an inward current | glutamate evoked current (%) ([1]; percent of maximal response, applied to wild-type astrocytes, glutamine-containing medium, TFLLR 500 μM in pipette): 10±2.6% | glutamate-induced current in GluR1(L497Y) HEK cells on astrocytes ([1]; same-day positive control, TFLLR or hyperosmotic solution, n=4): 136±35 pA | peak (maximum) glutamate concentration ([1]; wild-type astrocyte cultures, TFLLR application, converted from current by Formula 1): 1.1 ± 0.24 µM | peak (maximum) glutamate concentration (PAR1-/- astrocytes [2]; PAR1-/- astrocyte cultures, TFLLR application, converted from current by Formula 1): 0.23 ± 0.13 µM | glutamate evoked current (%) (PAR1-/- astrocytes [2]; percent of maximal response, applied to PAR1-/- astrocytes): 1.4±0.9% | astrocytic intracellular Ca2+ (wild-type astrocytes): increased | PAR1-/- astrocytic intracellular Ca2+ (PAR1-/- astrocytes [3]): did not alter | HEK cell intracellular Ca2+ (HEK cells): did increase | glutamate release (concentration) evoked by TFLLR [4]: 1.46 ± 0.54 µM | glutamate-induced current in GluR1(L497Y) HEK cells adjacent to neurons (cultured neurons; 30 μM TFLLR or hyperosmotic solution, n=3): 3.0±0.1 pA
